Patent US4191763A
Like-named read-outs stand apart in the source and are kept apart here.

Key:
[1] = test system: Ascaris lumbricoides var. suum; assay: anthelmintic activity in mice infected with Ascaris, medicated feed; assay type: in vivo; conditions: Example 13, 0.05 percent in diet; control 2.66
Description: The feeds were utilized as diets for separate groups of mice, five mice per group. About twelve hours after initiation of the feeding, the mice were infected with Ascaris lumbricoides var. summ ova. Another group of five mice was fed the non-medicated feed to serve as a control but was similarly infected at the same time with Ascaris lumbricoides var. suum. All groups were fed their respective feed and maintained under normal laboratory conditions for a period of eight days, at which time all mice were taken off feed. On the ninth day, all mice were sacrificed and the lungs examined to determine the presence, and if present, numbers, of lesions of Ascaris lumbricoides var. suum.
Another evaluation was conducted under the procedures reported in Example 11, except that the rates were varied. The results were as follows:
In a further evaluation, the monoammonium salts of A16886I and A16886II were separately evaluated for the control of Ascaris lumbricoides var. suum. The evaluations were conducted in accordance with the procedure reported in Example 11 at a concentration in the diet of 0.05 percent.

Pseudomonas solanacearum = assay type: in vivo, tomato plants; conditions: scale 0 (no control) to 4 (complete control)
Xanthomonas vesicatoria = assay: field trial, control of bacterial spot on tomato plants; assay type: in vivo
Procedure: (§1) A mixture of the monoammonium salt of A16886I and the monoammonium salt of A16886II was tested under field conditions for the control of Xanthomonas vesicatoria (bacterial spot) on mature bearing tomato plants. The mixture of the two salts was dispersed in water at a concentration of 100, 200, or 400 parts per million and applied to the plants at the rate of 75 gallons per acre. Application was made with a CO2 sprayer at 50 psi. Plants were sprayed twice, on successive days; after the second spray had dried, all plants were wounded by sand blasting and then within one minute the plants were inoculated with a bacterial inoculum of Xanthomonas vesicatoria. Three days later, a third spray application of the aqueous formulation of A16886 was made. Readings were made one week and two weeks after the last spray treatment. Controls consisted of groups of plants (1) sand blasted and inoculated; (2) sand blasted only; (3) untreated; and (4) treated with streptomycin (on the same three-day spraying schedule, at a concentration of 100, 200, or 400 parts per million of aqueous solution, using a rate of 75 gallons per acre), sand blasted, and inoculated. The results were as set forth in the following table, in which crop injury is reported on a scale of 0-10, with 0=no injury and 10=dead plants; and control of bacterial spot is reported on a percentage basis.

tomato plants = assay: field trial, crop injury; assay type: in vivo; conditions: scale 0 (no injury) to 10 (dead plants)
Procedure: as §1

[2] = First Reading, 100 parts/million
[3] = First Reading, 200 parts/million
[4] = First Reading, 400 parts/million
[5] = Second Reading, 100 parts/million
[6] = Second Reading, 200 parts/million
[7] = Second Reading, 400 parts/million

| Structure (SMILES) | Average Number of Lung Lesions Per Group [1] | Disease Rating (Pseudomonas solanacearum; Example 7, 10 ppm.) | Disease Rating (Pseudomonas solanacearum; Example 7, 100 ppm.) | Percent Bacterial Spot Control (Xanthomonas vesicatoria; [2]) [%] | Percent Bacterial Spot Control (Xanthomonas vesicatoria; [3]) [%] | Percent Bacterial Spot Control (Xanthomonas vesicatoria; [4]) [%] | Percent Bacterial Spot Control (Xanthomonas vesicatoria; [5]) [%] | Percent Bacterial Spot Control (Xanthomonas vesicatoria; [6]) [%] | Percent Bacterial Spot Control (Xanthomonas vesicatoria; [7]) [%] | Crop Injury Ratings (tomato plants; [2]) | Crop Injury Ratings (tomato plants; [3]) | Crop Injury Ratings (tomato plants; [4]) | Crop Injury Ratings (tomato plants; [5]) | Crop Injury Ratings (tomato plants; [6]) | Crop Injury Ratings (tomato plants; [7]) | rating (Pseudomonas solanacearum; Example 8, 100 ppm.) | rating (Pseudomonas solanacearum; Example 8, 200 ppm.) | rating (Pseudomonas solanacearum; Example 8, 400 ppm.) |
| --- | --- | --- | --- | --- | --- | --- | --- | --- | --- | --- | --- | --- | --- | --- | --- | --- | --- | --- |
| NC(=O)OCC1=C(C(=O)O)N2C(=O)C(NC(=O)CCCC(N)C(=O)O)[C@H]2SC1 (stereo partly drawn) [7-(5-amino-5-carboxyvaleramido)-3-(carbamoyloxymethyl)-3-cephem-4-carboxylic acid] | 0.20 | 1 | 4 |  |  |  |  |  |  |  |  |  |  |  |  |  |  |  |
| [H]/N=C(/N)N[C@H]1[C@H](O)[C@@H](O)[C@H](O[C@@H]2O[C@@H](C)[C@](O)(C=O)[C@H]2O[C@@H]2O[C@@H](CO)[C@H](O)[C@@H](O)[C@@H]2NC)[C@@H](N/C(N)=N\[H])[C@@H]1O [Streptomycin] |  |  |  | 83 | 81 | 83 | 57 | 37 | 59 | 0 | 0 | 0 | 0 | 0 | 0 |  |  |  |
| COC1(NC(=O)CCCC(N)C(=O)O)C(=O)N2C(C(=O)O)=C(COC(N)=O)CS[C@@H]21 (stereo partly drawn) [7-(5-amino-5-carboxyvaleramido)-3-(carbamoyloxymethyl)-7-methoxy-3-cephem-4-carboxylic acid] | 0.46 | 2 | 4 |  |  |  |  |  |  |  |  |  |  |  |  | 4 | 4 | 4 |
